Experiments:
[1] = test system: steatosis-induced Huh7 cells; experiment: Fat globule reducing effect by Oil-Red-O staining, compared to existing developed materials; format: cell-based; settings: FIG. 3
Method: In order to confirm the inhibition of fat accumulation in steatosis-induced liver cells, Huh7 cells were cultured in an incubator set at 37° C., 95% humidity, and 5% C02.
Additionally, Huh7 cells were proliferated to a confluency of 80-90% on a plate using a growth medium (Dulbecco's modified Eagle's medium (DMEM) supplemented with 10% fetal bovine serum (FBS), 100 U/ml of penicillin, and 100 μg/ml of streptomycin), and then used for the experiment.
In order to confirm the ability of BW-3290 to inhibit fat globule accumulation in steatosis-induced liver cells compared to the existing material under development, the liver cells were treated with palmitic acid (PA) bound to 2% BSA at a concentration of 250 μM except for the control group to induce steatosis, and then fat globules were stained through Oil-Red-O staining.
First, liver cells were cultured to grow 80-90% confluency in a 12 well plate, and the test material, BW-3290, were diluted in the culture medium that induced steatosis and the liver cells, except for the control group, were treated with 0.5 μM, 2.5 μM, 5 μM, and […].
Additionally, after removing the cell supernatant from the wells for Oil-Red-O staining, the washing process was performed twice with PBS.
Additionally, after washing, the resultant was fixed with 4% paraformaldehyde for 30 minutes. […]

[2] = test system: 3T3-L1 cells; experiment: Inhibition of fat globule formation in adipocytes by Oil-Red-O staining; format: cell-based, mouse; settings: 3T3-L1 adipocytes, 0.5, 2.5, 10 and 20 μM
Method: In order to confirm the effect of the compound on reducing fat accumulation on adipocytes, 3TL-L1 mouse fat progenitor cells (American Type Culture Collection) were cultured in an incubator set at 37° C. with 95% humidity and 5% CO2.
Additionally, after sufficiently proliferating 3T3-L1 mouse adipocytes using a proliferation medium (Dulbecco's modified Eagle's medium (DMEM) supplemented with 10% bovine serum (BS), 100 U/mL of penicillin, and 100 μg/mL of streptomycin), the cells were treated with a differentiation medium (DMEM containing 10% FBS, 0.5 mM 3-isobutyl-1-methylxanthine, 1 […], and 5 μg/mL insulin) for 2 days.
Thereafter, the cells were treated with an induction medium (DMEM containing 10% FBS and 5 μg/mL insulin) for 2 days, the maintenance medium (DMEM containing 10% FBS) was replaced daily to maintain the differentiated adipocytes until the end of the experiment.
According to an embodiment of the present invention, in order to confirm the ability of the compound of Formula 2 to inhibit fat globule formation, the 3T3-L1 cells (which are fat progenitor cells) were induced to be differentiated into adipocytes, and then stained through Oil-Red-O staining. […]

[3] = Pharmacokinetic parameters after oral administration; format: in vivo, Sprague Dwaley (SD) rats; settings: male SD rats, 10 mg/kg, FIG. 16
Method: An experiment was performed to measure the pharmacokinetic parameters of BW-3290 using three male Sprague Dwaley (SD) rats. As for BW-3290, a formulation with a composition of 95% water containing 5% DMSO and 20% HPbCD was used, and was orally administered at a concentration of 10 mg/kg. Blood samples were collected from the jugular vein at time points of 0.25, 0.5, 1, 4, 8, 10, 12, and 24 hours. The blood samples collected were centrifuged for 15 minutes at 4° C. at 2,500×g to secure plasma. Bioanalysis for the measurement of pharmacokinetic parameters was analyzed by LC-MS/MS.

Question: For `CC(C)C(Nc1ncnc2nc[nH]c12)c1nc2cccc(Cl)c2c(=O)n1-c1ccccc1` (stereo not shown) [BW-3290, 2-(1-((7H-purin-6-yl)amino)-2-methylpropyl)-5-chloro-3-phenylquinazolin-4(3H)-one], which “fat globule staining (Oil-Red-O) compared to PA” value ([1]; 250 μM PA, 0.5, 2.5, 5 and 10 μM, concentration dependent) is on record?
Answer: lower level of fat globule staining compared to PA

Question: And the “staining of fat globules in comparison with PF-06409577 and elafibranor” value ([1]; 250 μM PA, at the same concentration of 10 μM and at lower concentrations)?
Answer: reduced

Question: What about the “fat globule staining (Oil-Red-O) compared to differentiation” value ([2]; concentration-dependent, FIG. 5) of the same compound?
Answer: lower level of fat globule staining compared to differentiation

Question: What about the “amount of stained fat globules” value ([2]; FIG. 6) of the same compound?
Answer: appeared less in a drug concentration-dependent manner

Question: What about the AUClast [3] of the same compound?
Answer: excellent

Question: And the Cmax [3]?
Answer: excellent

Question: What about the “concentration after 12 hours after absorption” value ([3]; plasma) of the same compound?
Answer: maintained to some extent

Reference: patent publication US20230097253A1, “NOVEL QUINAZOLINE COMPOUND AS THERAPEUTIC AGENT FOR METABOLIC DISORDERS” (BIOWAY., INC, priority 2020, published 2023)
